Test results published in ChEMBL document CHEMBL4806969, “Modulators of mas-related g-protein receptor x4 and related products and methods” (2020).
Active and inactive are the calls of the source. The calls are words filed in the database; no cut-off is given here.

Columns and labels:
[1] = molecular target: T1, Mas-related G-protein coupled receptor member X4 (Homo sapiens, UniProt Q96LA9); assay: Antagonist activity at human MRGPRX4 expressed in HEK cells incubated in dark for 1 hr at 37 degree C and then incubated for 30 mins at room temperature in presence of […] bilirubin by HTRF assay; format: functional, cell-based
[2] = molecular target: T1, Mas-related G-protein coupled receptor member X4; assay: Antagonist activity at human MRGPRX4 expressed in HEK cells incubated in dark for 1 hr at 37 degree C and then incubated for 30 mins at room temperature in presence of 20 uM of deoxycholic acid by HTRF assay; format: functional, cell-based
[3] = AUC in C57BL/6 mouse at 50 mg/kg, po measured upto 24 hrs by LC-MS/MS analysis; format: ADME, organism-based; design: route oral, dose 50 mg/kg, time <=24; details: in vivo
[4] = Half life in C57BL/6 mouse at 50 mg/kg, po measured upto 24 hrs by LC-MS/MS analysis; format: ADME, organism-based; details: in vivo
[5] = molecular target: T1, Mas-related G-protein coupled receptor member X4; assay: Antagonist activity at human MRGPRX4 expressed in HEK cells incubated in dark for 1 hr at 37 degree C and then incubated for 30 mins at room temperature in presence of 10 uM of bilirubin by HTRF assay; format: functional, cell-based
[6] = molecular target: T1, Mas-related G-protein coupled receptor member X4; assay: Antagonist activity at human MRGPRX4 expressed in HEK cells incubated in dark for 1 hr at 37 degree C and then incubated for 30 mins at room temperature in presence of 100 uM of conjugated bilirubin by HTRF assay; format: functional, cell-based
[7] = molecular target: T1, Mas-related G-protein coupled receptor member X4; assay: Antagonist activity at human MRGPRX4 expressed in HEK cells incubated in dark for 1 hr at 37 degree C and then incubated for 30 mins at room temperature in presence of 50 uM of obeticholic acid by HTRF assay; format: functional, cell-based
[8] = Cmax in C57BL/6 mouse at 50 mg/kg, po measured upto 24 hrs by LC-MS/MS analysis; format: ADME, organism-based; design: route oral, dose 50 mg/kg, time <=24; details: in vivo
[9] = Stability of compound assessed as parent compound remaining after stored for 24 hrs in dark freezer condition by LC-MS/MS analysis; format: physicochemical; details: read-out: Stabilty
[10] = Stability of compound assessed as parent compound remaining after stored for 24 hrs in dark at room temperature by LC-MS/MS analysis; format: physicochemical
[11] = Stability of compound assessed as parent compound remaining after stored for 24 hrs in normal lab light condition at room temperature by LC-MS/MS analysis; format: physicochemical
[12] = Stability of compound assessed as parent compound remaining after stored for 24 hrs in blue light condition at room temperature by LC-MS/MS analysis; format: physicochemical
[13] = molecular target: T1, Mas-related G-protein coupled receptor member X4; assay: Agonist activity at human MRGPRX4 expressed in HEK cells using preincubated compound in dark freezer condition for 24 hrs by HTRF assay; format: functional, cell-based; details: filed as agonist
[14] = molecular target: T1, Mas-related G-protein coupled receptor member X4; assay: Agonist activity at human MRGPRX4 expressed in HEK cells using preincubated compound in dark at room temperature for 24 hrs by HTRF assay; format: functional, cell-based
[15] = molecular target: T1, Mas-related G-protein coupled receptor member X4; assay: Agonist activity at human MRGPRX4 expressed in HEK cells using preincubated compound in light at room temperature for 24 hrs by HTRF assay; format: functional, cell-based
[16] = molecular target: T1, Mas-related G-protein coupled receptor member X4; assay: Agonist activity at human MRGPRX4 expressed in HEK cells using preincubated compound in blue light at room temperature for 24 hrs by HTRF assay; format: functional, cell-based
[17] = molecular target: T1, Mas-related G-protein coupled receptor member X4; assay: Antagonist activity at human MRGPRX4 expressed in HEK cells incubated in dark for 1 hr at 37 degree C and then incubated for 30 mins at room temperature in presence of 50 uM of urobilin by HTRF assay; format: functional, cell-based

T1 sequence (Q96LA9 whole entry): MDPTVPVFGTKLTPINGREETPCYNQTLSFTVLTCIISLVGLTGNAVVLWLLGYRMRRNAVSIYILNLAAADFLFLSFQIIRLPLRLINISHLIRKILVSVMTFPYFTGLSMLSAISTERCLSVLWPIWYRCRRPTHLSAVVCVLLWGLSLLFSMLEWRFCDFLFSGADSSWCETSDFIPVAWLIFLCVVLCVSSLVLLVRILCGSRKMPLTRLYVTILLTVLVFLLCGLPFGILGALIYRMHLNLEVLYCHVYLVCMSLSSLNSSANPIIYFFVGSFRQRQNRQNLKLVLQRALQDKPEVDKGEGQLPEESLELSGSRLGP

In the case of `O=C(O)c1cccc(COc2ccc(Cl)cc2Cl)c1`, the IC50 [1] is reported as < 100 nM, the IC50 [2] is reported as 130 nM and the AUC at 24 h [3] is reported as 376 µM·h. The half-life [4] was 4.2 h.

With `CCc1cc(COc2ccc(C(F)(F)F)cc2Cl)nc(C(=O)O)c1` the IC50 [1] was < 100 nM, the IC50 [2] was 16 nM and the AUC at 24 h [3] was 4700 µM·h. For the same compound, the half-life [4] was 5.4 h.

In the case of `Cc1cc(C(F)(F)F)ccc1OCc1cccc(C(=O)O)c1F`, the IC50 [1] is reported as < 100 nM, the IC50 [5] is reported as 17 nM and the IC50 [6] is reported as 12 nM. It also gave an IC50 [2] of 75 nM, an IC50 [7] of 22 nM and a Cmax [8] of 230 µM. The AUC at 24 h [3] was 1200 µM·h and the half-life [4] was 4.8 h.

For `C=CC1=C(C)/C(=C/c2[nH]c(Cc3[nH]c(/C=C4\NC(=O)C(C)=C4C=C)c(C)c3CCC(=O)O)c(CCC(=O)O)c2C)NC1=O` [BILIRUBIN], the remaining at 24 h [9] was 44%, the Stabilty [10] was “Unstable” and the Stabilty [11] was “Unstable”. The Stabilty [12] was “Unstable”, the Activity [13] was “Active” and the Activity [14] was “inactive”. The Activity [15] was “inactive” and the Activity [16] was “inactive”.

For `N#Cc1cc(COc2ccc(Cl)cc2Cl)cc(C(=O)O)c1`, the IC50 [1] was < 100 nM and the IC50 [7] was 6 nM.

In the case of `O=C(O)c1cccc(COc2ccc(C(F)(F)F)cc2Cl)c1`, the IC50 [1] is reported as < 100 nM, the IC50 [2] is reported as 46 nM and the AUC at 24 h [3] is reported as 615 µM·h. For the same compound, the half-life [4] was 4.6 h.

For `O=C(O)c1cccc(COc2ccc(Cl)cc2C(F)(F)F)n1`, the IC50 [1] was < 100 nM and the IC50 [7] was 5 nM.

With `O=C(O)c1cccc(COc2ccc(Cl)c(Cl)c2Cl)c1` the IC50 [1] was < 100 nM, the IC50 [2] was 24 nM and the AUC at 24 h [3] was 219 µM·h. The half-life [4] was 4 h.

With `Clc1ccc(OCc2cccc(-c3nnn[nH]3)c2)c(Cl)c1Cl` the IC50 [1] was < 100 nM and the IC50 [17] was 6 nM.
